The numbers were not newly measured in publication PMC8240349 (Journal of Traditional and Complementary Medicine, 2021), which cites them from elsewhere.

The subject of this series is CCA. The settings on record: cited from earlier work.

Consider `CC1=CCC[C@H](C)[C@@]12CC[C@@H](C(C)(C)O)C2` [hinesol], for which the “activity (anti-CCA)” value is “weak activity”.
Turning to `C=C1CCC[C@]2(C)CC[C@@H](C(C)(C)O)C[C@@H]12` [β-eudesmol], the “IC50, anti-CCA activity” value (bioassay-guided activity) is 20 to 25 µg/mL.
